In the NIST ThermoML archive (doi:10.1016/j.tca.2006.01.020):

Assay: molar heat capacity at constant pressure
Settings: 101.33 kPa, Crystal, Small (less than 1 g) adiabatic calorimetry

[Ba+2].[Ce+4].[O-2].[O-2].[O-2] [barium cerium(IV) oxide]
Settings | molar heat capacity at constant pressure [J/K/mol]
11.89 K | 0.651
12.09 K | 0.7
12.29 K | 0.744
12.5 K | 0.806
12.72 K | 0.859
12.93 K | 0.919
13.15 K | 0.983
13.37 K | 1.05
13.59 K | 1.12
13.82 K | 1.2
14.05 K | 1.28
14.28 K | 1.36
14.51 K | 1.45
14.74 K | 1.54
14.97 K | 1.63
15.21 K | 1.73
15.44 K | 1.83
15.68 K | 1.93
15.91 K | 2.05
16.15 K | 2.16
16.38 K | 2.26
16.6 K | 2.38
16.84 K | 2.51
17.09 K | 2.62
17.32 K | 2.75
17.55 K | 2.89
17.79 K | 3.02
18.03 K | 3.16
18.27 K | 3.3
18.52 K | 3.44
18.76 K | 3.58
19 K | 3.73
19.23 K | 3.89
19.47 K | 4.05
19.73 K | 4.19
19.98 K | 4.35
20 K | 4.411
20.2 K | 4.52
20.44 K | 4.68
20.69 K | 4.84
20.94 K | 5
21.17 K | 5.2
21.41 K | 5.36
21.66 K | 5.54
21.91 K | 5.7
22.16 K | 5.88
22.39 K | 6.07
22.63 K | 6.26
22.88 K | 6.44
23.14 K | 6.62
23.38 K | 6.81
23.62 K | 7
23.86 K | 7.2
24.1 K | 7.39
24.36 K | 7.58
24.61 K | 7.76
24.86 K | 7.96
25.1 K | 8.19
25.34 K | 8.4
25.6 K | 8.57
25.86 K | 8.77
26.1 K | 8.98
26.34 K | 9.19
26.57 K | 9.41
26.83 K | 9.6
27.09 K | 9.8
27.35 K | 9.96
27.6 K | 10.2
27.83 K | 10.4
28.07 K | 10.7
28.33 K | 10.8
28.59 K | 10.7
28.92 K | 11.3
29.29 K | 11.6
29.83 K | 12.1
30 K | 12.33
30.39 K | 12.6
30.99 K | 13.1
31.6 K | 13.6
32.23 K | 14.1
32.89 K | 14.7
33.56 K | 15.3
34.26 K | 15.9
34.97 K | 16.5
35.7 K | 17.1
36.44 K | 17.8
37.19 K | 18.4
37.95 K | 19.1
38.72 K | 19.8
39.5 K | 20.4
40 K | 21.08
40.3 K | 21.1
41.1 K | 21.8
41.92 K | 22.5
42.76 K | 23.2
43.61 K | 24
44.48 K | 24.7
